How the values were obtained:
normal rats = assay: Oral glucose tolerance test in normal rats; type: in vivo, rat; conditions: compared to vehicle treated animals, FIG. 11
Excerpt: FIG. 11 represents the hypoglycemic activity of MC6.1 and its derivators, MC6.2 and 6.3 analogs in oral glucose tolerance test in normal rats.

SD rats = assay: Comparison of MC6 (oral, i.v.) with i.v. r-insulin during glucose infusion in SD rats; type: in vivo, rat; conditions: 500 μg MC6 i.v. or 150 mU r-insulin i.v. at 60 minutes following glucose infusion, FIG. 5
Method: In the next experiment, orally administered purified fraction MC6 (500 μg) was compared with i.v. injection of insulin (150 mU) in SD rats. Animals were divided into four groups and starved for three hours. Group 1 received PBS only; group 2 was given MC6 orally 60 minutes before glucose infusion; group 3 received 150 mU r-insulin (Humalin-R® of Novo-Nordisk) i.v. at 60 minutes following glucose infusion through jugular vein and group 4 received 500 μg MC6 in 1 ml PBS (i.v.) at 60 minutes following glucose infusion through jugular vein. In all cases, glucose infusion was at 18 mg/min/kg. Blood samples were collected from the carotid artery at different time intervals and quantitative plasma glucose levels were measured […].

6.3: 7-a.a. derivative of MC6.1: K-T-N-M-K-H-M (SEQ ID NO:03) (KTNMKHM)
lowering blood glucose in oral glucose tolerance test (normal rats): effective in lowering blood glucose

r-insulin: r-insulin (Humalin-R of Novo-Nordisk), 150 mU i.v., comparator
hypoglycemic profile, systemic (i.v.) injection (SD rats): identical hypoglycemic profile
